# Test results from patent US20140135319A1, “6-SUBSTITUTED IMIDAZOPYRAZINES FOR USE AS MPS-1 AND TKK INHIBITORS IN THE TREATMENT OF HYPERPROLIFERATIVE DISORDERS” (BAYER INTELLECTUAL PROPERTY GMBH, priority 2010, published 2014).
# Target: T1, human kinase Mps-1 (Homo sapiens, UniProt P33981)
# T1 construct: N-terminally GST-tagged human full length recombinant Mps-1 kinase; GST (N); purchased Invitrogen, Karslruhe, Germany PV4071
# T1 sequence (P33981 1-857): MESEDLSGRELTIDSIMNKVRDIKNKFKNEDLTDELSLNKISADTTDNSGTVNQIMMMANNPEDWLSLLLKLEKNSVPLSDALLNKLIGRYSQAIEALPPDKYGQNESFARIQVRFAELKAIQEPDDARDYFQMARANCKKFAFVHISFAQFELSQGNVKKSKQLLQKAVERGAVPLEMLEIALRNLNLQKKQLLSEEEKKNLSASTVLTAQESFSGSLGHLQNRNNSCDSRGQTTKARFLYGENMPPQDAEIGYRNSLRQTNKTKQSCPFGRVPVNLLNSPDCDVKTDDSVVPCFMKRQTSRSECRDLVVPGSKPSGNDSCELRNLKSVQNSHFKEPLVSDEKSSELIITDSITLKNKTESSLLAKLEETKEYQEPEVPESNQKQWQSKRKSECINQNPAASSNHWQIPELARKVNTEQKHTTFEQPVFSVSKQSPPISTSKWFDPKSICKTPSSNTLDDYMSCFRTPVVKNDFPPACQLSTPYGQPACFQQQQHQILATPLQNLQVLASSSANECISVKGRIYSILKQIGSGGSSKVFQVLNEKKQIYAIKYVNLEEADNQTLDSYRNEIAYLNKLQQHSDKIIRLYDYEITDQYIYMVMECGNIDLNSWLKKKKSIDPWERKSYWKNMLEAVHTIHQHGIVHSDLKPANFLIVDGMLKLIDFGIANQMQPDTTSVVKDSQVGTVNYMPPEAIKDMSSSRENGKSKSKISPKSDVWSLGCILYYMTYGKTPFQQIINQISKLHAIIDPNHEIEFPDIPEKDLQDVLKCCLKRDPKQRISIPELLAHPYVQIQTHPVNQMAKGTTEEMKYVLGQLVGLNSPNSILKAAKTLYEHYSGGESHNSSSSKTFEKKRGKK
# Assay: Mps-1 kinase assay (TR-FRET)
# Type: biochemical
# Conditions: GST-tagged human full length recombinant Mps-1; 10 μM ATP; 1 μM peptide substrate; 60 min at 22° C.
# Method in brief: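 N-terminally GST-tagged full-length recombinant human Mps-1, about 1 nM final, phosphorylates a biotinylated peptide. Product detected by TR-FRET from Eu-anti-phospho-Ser/Thr antibody to streptavidin-XLent after 1 h at 22° C.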
row,Compound,IC50
1,"Cn1nccc1CNc1nc(-c2ccncc2)cn2c(-c3ccc(C(=O)NC4CC4)c(Cl)c3)cnc12 [Example 1-46, 2-chloro-N-cyclopropyl-4-[8-{[(1-methyl-1H-pyrazol-5-yl)methyl]amino}-6-(pyridin-4-yl)imidazo[1,2-a]pyrazin-3-yl]benzamide]",32.6 nM
2,"Cc1ccc(-c2cn3c(-c4ccc(C(=O)NC5CC5)cc4)cnc3c(NCC(C)(C)O)n2)cc1CC(N)=O [Example 1-99, 4-{6-[3-(2-Amino-2-oxo-ethyl)-4-methylphenyl]-8-[(2-hydroxy-2-methylpropyl)amino]imidazo[1,2-a]pyrazin-3-yl}-N-cyclopropylbenzamide]",16.1 nM
3,"Cn1nccc1CNc1nc(-c2ccn[nH]2)cn2c(-c3ccc(C(=O)NC4CC4)c(Cl)c3)cnc12 [Example 1-48, 2-chloro-N-cyclopropyl-4-[8-{[(1-methyl-1H-pyrazol-5-yl)methyl]amino}-6-(1H-pyrazol-5-yl)imidazo[1,2-a]pyrazin-3-yl]benzamide]",42.3 nM
4,"Cc1ccc2sc(-c3cn4c(-c5ccc(C(=O)NC6CC6)cc5)cnc4c(NCC(C)C)n3)cc2c1 [Example 1-16, N-cyclopropyl-4-{6-(5-methyl-1-benzothiophen-2-yl)-8-[(2-methylpropyl)amino]imidazo[1,2-a]pyrazin-3-yl}benzamide]",104 nM
5,"Cn1nccc1CNc1nc(-c2ccncc2)cn2c(-c3ccc(C(=O)NC4CC4)c(F)c3)cnc12 [Example 1-64, N-cyclopropyl-2-fluoro-4-[8-{[(1-methyl-1H-pyrazol-5-yl)methyl]amino}-6-(pyridin-4-yl)imidazo[1,2-a]pyrazin-3-yl]benzamide]",6.5 nM
6,"O=C(NC1CC1)c1ccc(-c2cnc3c(NCCC(F)(F)F)nc(C4=CCOCC4)cn23)cc1Cl [Example 1-39, 2-chloro-N-cyclopropyl-4-{6-(3,6-dihydro-2H-pyran-4-yl)-8-[(3,3,3-trifluoropropyl)amino]imidazo[1,2-a]pyrazin-3-yl}benzamide]",12.2 nM
7,"Cc1cc(-c2cn3c(-c4ccc(C(=O)NC5CC5)c(C)c4)cnc3c(NCCC(F)(F)F)n2)ccn1 [Example 1-68, N-cyclopropyl-2-methyl-4-{6-(2-methylpyridin-4-yl)-8-[(3,3,3-trifluoro-propyl)amino]imidazo [1,2-a]pyrazin-3-yl} benzamide]",1.5 nM
8,"O=C(NC1CC1)c1ccc(-c2cnc3c(NCCC(F)(F)F)nc(-c4ccoc4)cn23)cc1F [Example 1-54, N-cyclopropyl-2-fluoro-4-{6-(furan-3-yl)-8-[(3,3,3-trifluoropropyl)amino]imidazo[1,2-a]pyrazin-3-yl}benzamide]",6.6 nM
9,"O=C(NC1CC1)c1ccc(-c2cnc3c(NCC4CCCO4)nc(-c4ccn[nH]4)cn23)cc1Cl (stereo not drawn) [Example 1-44, 2-chloro-N-cyclopropyl-4-{6-(1H-pyrazol-5-yl)-8-[(tetrahydrofuran-2-ylmethyl)amino]imidazo [1,2-a]pyrazin-3-yl} benzamide]",127 nM
10,"CC(C)CNc1nc(-c2cc3ccccc3o2)cn2c(-c3ccc(C(=O)NC4CC4)cc3)cnc12 [Example 1-11, 4-{6-(1-benzofuran-2-yl)-8-[(2-methylpropyl)amino]imidazo[1,2-a]pyrazin-3-yl}-N-cyclo-propylbenzamide]",78.8 nM
11,"CC(C)CNc1nc(C2=CCOCC2)cn2c(-c3ccc(C(=O)NC4CC4)c(F)c3)cnc12 [Example 1-52, N-cyclopropyl-4-{6-(3,6-dihydro-2H-pyran-4-yl)-8-[(2-methylpropyl)amino]imidazo[1,2-a]pyrazin-3-yl}-2-fluoro-benzamide]",8.2 nM
12,"O=C(NC1CC1)c1ccc(-c2cnc3c(NCCC(F)(F)F)nc(C4=CCOCC4)cn23)cc1F [Example 1-56, N-cyclopropyl-4-{6-(3,6-dihydro-2H-pyran-4-yl)-8-[(3,3,3-trifluoro-propyl)amino]imidazo [1,2-a]pyrazin-3-yl}-2-fluorobenzamide]",8.7 nM
13,"Cc1cc(-c2cnc3c(NCCC(F)(F)F)nc(C4=CCSCC4)cn23)ccc1C(=O)NC1CC1 [Example 1-79, N-cyclopropyl-4-{6-(3,6-dihydro-2H-thiopyran-4-yl)-8-[(3,3,3-trifluoro-propyl)amino]imidazo [1,2-a]pyrazin-3-yl}-2-methylbenzamide]",2.8 nM
14,"CC(C)CNc1nc(-c2cnc3ccccc3c2)cn2c(-c3ccc(C(=O)NC4CC4)cc3)cnc12 [Example 1-2, N-cyclopropyl-4-{8-[(2-methylpropyl)amino]-6-(quinolin-3-yl)imidazo [1,2-a]pyrazin-3-yl} benzamide]",43.8 nM
15,"CC(C)CNc1nc(-c2ccc(CN(C)C)cc2)cn2c(-c3ccc(C(=O)NC4CC4)cc3)cnc12 [Example 1-31, N-cyclopropyl-4-(6-{4-[(dimethylamino)methyl]phenyl}-8-[(2-methyl-propyl)amino]imidazo [1,2-a]pyrazin-3-yl) benzamide]",3.3 nM
16,"Cc1cc(-c2cnc3c(NCCC(F)(F)F)nc(-c4cnn(C)c4)cn23)ccc1C(=O)NC1CC1 [Example 1-69, N-cyclopropyl-2-methyl-4-{6-(1-methyl-1H-pyrazol-4-yl)-8-[(3,3,3-trifluoropropyl)amino]imidazo[1,2-a]pyrazin-3-yl}benzamide]",3.8 nM

# Next, values leading:
row,IC50,Compound
1,2.4 nM,"O=C(NC1CC1)c1ccc(-c2cnc3c(NCC4CCCO4)nc(-c4ccncc4)cn23)cc1 (stereo not drawn) [Example 3-7, N-cyclopropyl-4-{6-(pyridin-4-yl)-8-[(tetrahydrofuran-2-ylmethyl)amino]imidazo[1,2-a]pyrazin-3-yl}benzamide]"
2,5.4 nM,"O=C(NC1CC1)c1ccc(-c2cnc3c(NCC(F)F)nc(-c4ccncc4)cn23)cc1 [Example 3-26, N-cyclopropyl-4-{8-[(2,2-difluoroethyl)amino]-6-(pyridin-4-yl)imidazo [1,2-a]pyrazin-3-yl} benzamide]"
3,10.8 nM,"NCC#CCCNc1nc(-c2ccccc2)cn2c(-c3ccc(C(=O)NC4CC4)cc3)cnc12 [Example 4-1, 4-{8-[(5-Aminopent-3-yn-1-yl)amino]-6-phenylimidazo[1,2-a]pyrazin-3-yl}-N-cyclopropylbenzamide]"
4,8.6 nM,"Cc1cc(-c2cnc3c(NCC4CC4C)nc(C4=CCOCC4)cn23)ccc1C(=O)NC1CC1 (stereo not drawn) [Example 6-16, N-cyclopropyl-4-[6-(3,6-dihydro-2H-pyran-4-yl)-8-{[(2-methylcyclo-propyl)methyl]amino}imidazo [1,2-a]pyrazin-3-yl]-2-methylbenzamide]"
5,3.5 nM,"O=C(NC1CC1)c1ccc(-c2cnc3c(NCc4ccco4)nc(-c4ccncc4)cn23)cc1 [Example 3-20, N-cyclopropyl-4-{8-[(furan-2-ylmethyl)amino]-6-(pyridin-4-yl)imidazo [1,2-a]pyrazin-3-yl} benzamide]"
6,16 nM,"Cc1cc(-c2cnc3c(NCCC(F)(F)F)nc(C4=CC[S+]([O-])CC4)cn23)ccc1C(=O)NC1CC1 (stereo not drawn) [Example 9-1, N-cyclopropyl-2-methyl-4-{6-(1-oxido-3,6-dihydro-2H-thiopyran-4-yl)-8-[(3,3,3-trifluoropropyl)amino]imidazo[1,2-a]pyrazin-3-yl}benzamide]"
7,3.2 nM,"O=C(NC1CC1)c1ccc(-c2cnc3c(NCCCF)nc(-c4ccncc4)cn23)cc1 [Example 3-33, N-cyclopropyl-4-{8-[(3-fluoropropyl)amino]-6-(pyridin-4-yl)imidazo [1,2-a]pyrazin-3-yl} benzamide]"
8,67.2 nM,"CC(C)CNc1nc(C(=O)Nc2ccccc2)cn2c(-c3ccc(C(=O)NC4CC4)cc3)cnc12 [Example 8-1, 3-[4-(cyclopropylcarbamoyl)phenyl]-8-[(2-methylpropyl)amino]-N-phenylimidazo[1,2-a]pyrazine-6-carboxamide]"
9,55.1 nM,"CC(C)CNc1nc(C#N)cn2c(-c3ccc(C(=O)NC4CC4)cc3)cnc12 [Example 5-1, 4-{6-cyano-8-[(2-methylpropyl)amino]imidazo[1,2-a]pyrazin-3-yl}-N-cyclopropyl benzamide]"
10,4.1 nM,"O=C(NC1CC1)c1ccc(-c2cnc3c(NCCCCO)nc(-c4ccncc4)cn23)cc1 [Example 3-11, N-cyclopropyl-4-{8-[(4-hydroxybutyl)amino]-6-(pyridin-4-yl)imidazo [1,2-a]pyrazin-3-yl} benzamide]"
11,29.9 nM,"Cc1cc(-c2cnc3c(NCC4CNC(=O)C4)nc(C4=CCOCC4)cn23)ccc1C(=O)NC1CC1 (stereo not drawn) [Example 6-13, N-cyclopropyl-4-[6-(3,6-dihydro-2H-pyran-4-yl)-8-{[(5-oxopyrrolidin-3-yl)methyl]amino}imidazo [1,2-a]pyrazin-3-yl]-2-methylbenzamide]"
